Source: patent publication US4321212A, “Method for preparing an optically active α-cyano-3-phenoxybenzyl 2-(4-substituted-phenyl)isovalerate” (Sumitomo Chemical Company Limited, priority 1980, dated 1982)
Converted amounts (≈) assume the structure as drawn.

Assays:
carmine mites = experiment: Spray test against carmine mites on potted kidney beans (Test Example 3); assay type: in vivo, carmine mite; conditions: 20% emulsifiable concentrate diluted 500-fold with water, 10 ml/pot, after 10 days
Method: 10 to 15 female adult carmine mites were placed on each leaf of potted kidney beans (2-leaf stage) 9 days old after seeding. After standing in a constant temperature room at 27° C. for a week, a lot of mites in various growth stages were observed on the beans. Each of the emulsifiable concentrates prepared from the compounds of this invention, (1), (2), (3), (4), and (5), in the procedures described in Formulation Example 2 was diluted 500-fold with water and sprayed to the beans on a turntable in a proportion of 10 ml/pot.

houseflies = experiment: Topical application to female adult WHO-strain houseflies (Test Example 2); assay type: in vivo, housefly, WHO-strain (standard susceptible strain); conditions: 0.5 μl acetone solution to the thorax, female adults, 24 hours
Method: The compounds of this invention, (1), (2), (3), (4) and (5), were diluted with acetone to a predetermined concentration, and 0.5 μl of each solution was topically applied to the thorax of female adult WHO-strain houseflies (standard susceptible strain) with a microsyringe. The flies were placed in plastic cups each having a diameter of 11 cm in which a bait (3% sugar water) was placed. 24 hours later, the alive and dead was evaluated to determine the LD50 (median lethal dose) (μg/housefly).

tobacco cutworms = experiment: Leaf-dip test on fourth instar larvae of tobacco cutworms (Test Example 1); assay type: in vivo, tobacco cutworm; conditions: foliar, cabbage leaf dip 1 minute, emulsifiable concentrate diluted with water, 24 hours, 10 larvae per group, three replications, read-out: LC50 (concentration required for 50% death)
Method: Each of the emulsifiable concentrates prepared from the compounds of this invention, (4) and (5), in the procedures described in Formulation Example 2 was diluted with water to a pre-determined concentration, and mixed with 3,000 times by weight based on the diluted solution of a spreader (Shin-Rino, a registered trademark of Nippon Noyaku Co., Ltd., for a mixture containing 20% of an alkylphenol polyethylene glycol ether and 12% of a salt of lignin sulfonic acid).
The dried leaves were placed in plastic cups (diameter 10 cm, height 4 cm) at a rate of 2 leaves/cup, and the fourth instar larvae of tobacco cutworms were liberated therein. The dead and alive was evaluated after 24 hours and the values of LC50 (concentration required for 50% death) were obtained.
Experiments of three replications were carried out using 10 larvae per group.

## COc1ccc([C@@H](C(=O)OC(C#N)c2cccc(Oc3ccccc3)c2)C(C)C)cc1 (stereo partly drawn) [Compound (1), α-cyano-3-phenoxybenzyl S-(+)-2-(4-methoxyphenyl)isovalerate]
Carmine mites
  damage of the kidney beans by the mites: hardly observed
houseflies
  LD50 (median lethal dose): 0.18 μg/housefly

## CC(C)[C@H](C(=O)OC(C#N)c1cccc(Oc2ccccc2)c1)c1ccc(OC(F)F)cc1 (stereo partly drawn) [Compound (5), α-cyano-3-phenoxybenzyl S-(+)-2-(4-difluoromethoxyphenyl)isovalerate]
Carmine mites
  damage of the kidney beans by the mites: hardly observed
houseflies
  LD50 (median lethal dose): 0.042 μg/housefly
Tobacco cutworms
  LC50: 6.9 µg/mL (≈ 15.3 µM)

## COc1ccc([C@@H](C(=O)O[C@H](C#N)c2cccc(Oc3ccccc3)c2)C(C)C)cc1 [Compound (3), (S)-α-cyano-3-phenoxybenzyl S-(+)-2-(4-methoxyphenyl)isovalerate]
Carmine mites
  damage of the kidney beans by the mites: hardly observed
houseflies
  LD50 (median lethal dose): 0.10 μg/housefly

## COc1ccc([C@@H](C(=O)OC(C#N)c2cccc(Oc3ccccc3)c2)C(C)C)cc1 (stereo partly drawn) [Compound (2), α-cyano-3-phenoxybenzyl S-(+)-2-(4-methoxyphenyl)isovalerate]
Carmine mites
  damage of the kidney beans by the mites: hardly observed
houseflies
  LD50 (median lethal dose): 0.13 μg/housefly

## CC(C)C(C(=O)OC(C#N)c1cccc(Oc2ccccc2)c1)c1ccc(OC(F)F)cc1 (racemic) [(b), reference compound]
houseflies
  LD50 (median lethal dose): 0.15 μg/housefly

## COc1ccc(C(C(=O)OC(C#N)c2cccc(Oc3ccccc3)c2)C(C)C)cc1 (racemic) [Reference Compound (a), reference compound]
houseflies
  LD50 (median lethal dose): 0.35 μg/housefly

## CC(C)[C@H](C(=O)O[C@H](C#N)c1cccc(Oc2ccccc2)c1)c1ccc(OC(F)F)cc1 [Compound (4), α-cyano-3-phenoxybenzyl S-(+)-2-(4-difluoromethoxyphenyl)isovalerate]
Carmine mites
  damage of the kidney beans by the mites: hardly observed
houseflies
  LD50 (median lethal dose): 0.038 μg/housefly
Tobacco cutworms
  LC50: 5.9 µg/mL (≈ 13.1 µM)
